Patent US12351556B2, “Pyridin-2(1H)one derivatives, their preparation and their use for the treatment of pain” (INSTITUT NATIONAL DE LA SANTE ET DE LA RECHERCHE MEDICALE …, priority 2019, dated 2025)

Legend:
[1] = test system: panel of 50 protein kinases; assay: ICKP screening, whole panel of 50 protein kinases; type: biochemical, human; settings: 10 μM
Experimental: (§1) FIG. 3 illustrates the human kinome. Compound 69 was evaluated at the International Center For Kinase Profiling (ICKP, Dundee, Scotland) toward a panel of 50 protein kinases that provide a representative sampling of the human kinome. The results were expressed as the mean percentage of residual activity at 10 μM concentration (duplicate assays). Small disks: ≥65%, larger disk: 19%. The black square indicates the kinome region containing protein kinases evaluated in a second screening (FIG. 4, Table 4). The tree was generated using the Kinome Render software, and the illustration reproduced courtesy of Cell Signaling Technology, Inc. (www.cellsignal.com) Chartier et al PeerJ 2013, 1:e126.
(§2) Results are expressed as the mean percentage of residual activity at 10 μM (Table 3) or 1 μM (Table 4). They are illustrated on FIGS. 3 and 4.
(§3) Studies were undertaken to identify the possible biological target(s) of compound 69. The activation in neurons of PK such as PKCγ, ERK or p38 MAPK can contribute to pain hypersensitivity. Therefore, it was decided to screen compound 69 toward a panel of 50 PKs that provide a representative sampling of the human kinome (FIG. 3, Table 3) (Biochem. J. 2007, 408, 297-315). In this panel, p38α MAPK was identified as the privileged target, with 19% of kinase residual activity at 10 μM compound concentration.

SGK1 = SGK1 (Homo sapiens (Human), UniProt O00141); assay: ICKP protein kinase panel screening; type: biochemical; settings: duplicate assays, read-out: mean % residual activity
Sequence of SGK1 (O00141 whole entry): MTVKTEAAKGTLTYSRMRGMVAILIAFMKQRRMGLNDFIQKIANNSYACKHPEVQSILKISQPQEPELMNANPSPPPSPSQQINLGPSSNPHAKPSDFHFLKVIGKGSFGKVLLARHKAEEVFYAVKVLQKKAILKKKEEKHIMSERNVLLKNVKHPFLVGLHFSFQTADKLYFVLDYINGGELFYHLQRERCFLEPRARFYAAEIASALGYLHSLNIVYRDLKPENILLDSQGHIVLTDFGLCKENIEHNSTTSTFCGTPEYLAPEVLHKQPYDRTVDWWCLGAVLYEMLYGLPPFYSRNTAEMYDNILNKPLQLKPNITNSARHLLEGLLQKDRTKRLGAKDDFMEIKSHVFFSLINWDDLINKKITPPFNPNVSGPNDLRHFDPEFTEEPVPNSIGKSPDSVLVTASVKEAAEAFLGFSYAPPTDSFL
Experimental: as §1, §2, §3

HER4 = HER4 (Homo sapiens (Human), UniProt Q15303); assay: ICKP protein kinase panel screening; type: biochemical; settings: duplicate assays, read-out: mean % residual activity
Experimental: as §1, §2, §3

IGF-1R = IGF-1R (Homo sapiens (Human), UniProt P08069); assay: ICKP protein kinase panel screening; type: biochemical; settings: duplicate assays, read-out: mean % residual activity
Experimental: as §1, §2, §3

TAK1 = TAK1 (Homo sapiens (Human), UniProt O43318); assay: ICKP protein kinase panel screening; type: biochemical; settings: duplicate assays, read-out: mean % residual activity
Sequence of TAK1 (O43318 1-303): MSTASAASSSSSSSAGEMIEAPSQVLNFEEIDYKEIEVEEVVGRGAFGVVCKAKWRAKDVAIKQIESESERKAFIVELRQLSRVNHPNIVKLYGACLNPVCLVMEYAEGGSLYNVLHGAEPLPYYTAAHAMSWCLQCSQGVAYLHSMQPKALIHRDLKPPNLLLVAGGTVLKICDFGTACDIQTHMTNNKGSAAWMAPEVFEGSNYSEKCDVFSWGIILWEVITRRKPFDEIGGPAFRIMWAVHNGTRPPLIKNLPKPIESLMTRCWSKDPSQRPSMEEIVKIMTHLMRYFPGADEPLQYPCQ
Sequence of TAK1 (Q15750 437-504 partner): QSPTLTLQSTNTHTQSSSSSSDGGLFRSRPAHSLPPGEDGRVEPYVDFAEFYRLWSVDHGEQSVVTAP
Experimental: as §1, §2, §3

TTK = TTK (Homo sapiens (Human), UniProt P33981); assay: ICKP protein kinase panel screening; type: biochemical; settings: duplicate assays, read-out: mean % residual activity
Experimental: as §1, §2, §3

GSK3b = GSK3b (Homo sapiens (Human), UniProt P49841); assay: ICKP protein kinase panel screening; type: biochemical; settings: duplicate assays, read-out: mean % residual activity
Sequence of GSK3b (P49841 whole entry): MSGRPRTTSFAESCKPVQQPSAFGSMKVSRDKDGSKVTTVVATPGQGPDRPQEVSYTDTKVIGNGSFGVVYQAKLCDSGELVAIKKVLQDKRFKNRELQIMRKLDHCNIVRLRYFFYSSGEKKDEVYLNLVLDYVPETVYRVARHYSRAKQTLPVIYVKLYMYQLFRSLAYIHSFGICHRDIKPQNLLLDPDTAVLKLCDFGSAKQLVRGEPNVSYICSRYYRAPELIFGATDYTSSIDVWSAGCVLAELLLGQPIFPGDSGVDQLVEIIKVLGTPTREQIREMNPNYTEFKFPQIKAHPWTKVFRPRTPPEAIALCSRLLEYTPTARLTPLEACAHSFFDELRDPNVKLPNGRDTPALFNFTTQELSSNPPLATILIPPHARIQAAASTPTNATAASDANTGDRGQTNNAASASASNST
Experimental: as §1, §2, §3

CAMKKb = CAMKKb (Homo sapiens (Human), UniProt Q96RR4); assay: ICKP protein kinase panel screening; type: biochemical; settings: duplicate assays, read-out: mean % residual activity
Sequence of CAMKKb (Q96RR4 whole entry): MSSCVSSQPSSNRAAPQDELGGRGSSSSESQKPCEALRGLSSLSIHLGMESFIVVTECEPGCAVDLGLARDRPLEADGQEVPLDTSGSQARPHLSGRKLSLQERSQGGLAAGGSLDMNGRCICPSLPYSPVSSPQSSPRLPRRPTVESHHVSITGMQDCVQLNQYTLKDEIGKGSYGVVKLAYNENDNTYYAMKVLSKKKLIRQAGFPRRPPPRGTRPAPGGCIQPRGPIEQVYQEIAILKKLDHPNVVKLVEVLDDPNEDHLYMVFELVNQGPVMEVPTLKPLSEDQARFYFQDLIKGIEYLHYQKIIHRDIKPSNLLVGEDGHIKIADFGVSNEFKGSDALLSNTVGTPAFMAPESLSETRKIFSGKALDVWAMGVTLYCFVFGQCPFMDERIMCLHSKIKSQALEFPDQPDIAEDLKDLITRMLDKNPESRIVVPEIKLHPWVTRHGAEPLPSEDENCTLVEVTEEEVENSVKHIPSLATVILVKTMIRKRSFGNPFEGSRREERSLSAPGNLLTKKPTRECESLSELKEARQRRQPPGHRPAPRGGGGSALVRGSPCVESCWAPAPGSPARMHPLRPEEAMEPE
Experimental: as §1, §2, §3

LKB1 = LKB1 (Homo sapiens (Human), UniProt Q15831); assay: ICKP protein kinase panel screening; type: biochemical; settings: duplicate assays, read-out: mean % residual activity
Experimental: as §1, §2, §3

Src = Src (Homo sapiens (Human), UniProt P12931); assay: ICKP protein kinase panel screening; type: biochemical; settings: duplicate assays, read-out: mean % residual activity
Sequence of Src (P12931 whole entry, looked up): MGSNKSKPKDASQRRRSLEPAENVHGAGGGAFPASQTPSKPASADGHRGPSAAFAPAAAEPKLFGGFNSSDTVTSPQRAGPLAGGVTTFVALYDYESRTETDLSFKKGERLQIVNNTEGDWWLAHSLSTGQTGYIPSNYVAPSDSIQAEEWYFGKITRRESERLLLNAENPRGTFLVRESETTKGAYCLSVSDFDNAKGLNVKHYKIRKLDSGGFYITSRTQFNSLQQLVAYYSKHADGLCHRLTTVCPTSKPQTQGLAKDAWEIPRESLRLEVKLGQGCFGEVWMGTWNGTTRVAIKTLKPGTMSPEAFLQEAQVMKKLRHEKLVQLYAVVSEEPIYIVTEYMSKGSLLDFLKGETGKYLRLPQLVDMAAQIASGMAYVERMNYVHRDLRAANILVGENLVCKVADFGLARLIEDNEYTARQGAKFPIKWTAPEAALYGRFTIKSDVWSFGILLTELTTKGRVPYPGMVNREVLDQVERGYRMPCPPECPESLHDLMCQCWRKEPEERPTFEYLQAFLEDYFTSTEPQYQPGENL
Experimental: as §1, §2, §3

CHK2 = CHK2 (Homo sapiens (Human), UniProt O96017); assay: ICKP protein kinase panel screening; type: biochemical; settings: duplicate assays, read-out: mean % residual activity
Experimental: as §1, §2, §3

NEK6 = NEK6 (Homo sapiens (Human), UniProt Q9HC98); assay: ICKP protein kinase panel screening; type: biochemical; settings: duplicate assays, read-out: mean % residual activity
Experimental: as §1, §2, §3

PKCa = PKCa (Homo sapiens (Human), UniProt P17252); assay: ICKP protein kinase panel screening; type: biochemical; settings: duplicate assays, read-out: mean % residual activity
Experimental: as §1, §2, §3

VEG-FR = VEG-FR (Homo sapiens (Human), UniProt P17948); assay: ICKP protein kinase panel screening; type: biochemical; settings: duplicate assays, read-out: mean % residual activity
Experimental: as §1, §2, §3

PRK2 = PRK2 (Homo sapiens (Human), UniProt Q16513); assay: ICKP protein kinase panel screening; type: biochemical; settings: duplicate assays, read-out: mean % residual activity
Experimental: as §1, §2, §3

CAMK1 = CAMK1 (Homo sapiens (Human), UniProt Q14012); assay: ICKP protein kinase panel screening; type: biochemical; settings: duplicate assays, read-out: mean % residual activity
Experimental: as §1, §2, §3

SYK = SYK (Homo sapiens (Human), UniProt P43405); assay: ICKP protein kinase panel screening; type: biochemical; settings: duplicate assays, read-out: mean % residual activity
Experimental: as §1, §2, §3

MSK1 = MSK1 (Homo sapiens (Human), UniProt O75582); assay: ICKP protein kinase panel screening; type: biochemical; settings: duplicate assays, read-out: mean % residual activity
Experimental: as §1, §2, §3

PDK1 = PDK1 (Homo sapiens (Human), UniProt O15530); assay: ICKP protein kinase panel screening; type: biochemical; settings: duplicate assays, read-out: mean % residual activity
Sequence of PDK1 (O15530 whole entry): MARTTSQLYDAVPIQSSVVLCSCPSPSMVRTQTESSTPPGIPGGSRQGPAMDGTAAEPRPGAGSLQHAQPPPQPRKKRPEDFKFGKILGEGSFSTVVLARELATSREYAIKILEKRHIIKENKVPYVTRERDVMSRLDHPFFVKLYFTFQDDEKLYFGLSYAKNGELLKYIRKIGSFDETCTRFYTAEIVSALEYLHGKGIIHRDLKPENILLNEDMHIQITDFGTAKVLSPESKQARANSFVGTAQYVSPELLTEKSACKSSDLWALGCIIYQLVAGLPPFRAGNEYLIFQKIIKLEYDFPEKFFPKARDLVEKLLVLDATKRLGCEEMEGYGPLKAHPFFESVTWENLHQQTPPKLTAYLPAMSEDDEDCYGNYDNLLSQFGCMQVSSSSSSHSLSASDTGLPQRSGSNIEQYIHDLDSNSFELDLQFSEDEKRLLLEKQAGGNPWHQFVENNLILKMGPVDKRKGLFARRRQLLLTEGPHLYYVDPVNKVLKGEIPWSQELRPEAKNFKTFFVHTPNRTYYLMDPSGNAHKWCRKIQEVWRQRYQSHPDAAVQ
Experimental: as §1, §2, §3

MST2 = MST2 (Homo sapiens (Human), UniProt Q13188); assay: ICKP protein kinase panel screening; type: biochemical; settings: duplicate assays, read-out: mean % residual activity
Experimental: as §1, §2, §3

SmMLCK = SmMLCK (Homo sapiens (Human), UniProt Q15746); assay: ICKP protein kinase panel screening; type: biochemical; settings: duplicate assays, read-out: mean % residual activity
Experimental: as §1, §2, §3

PIM1 = PIM1 (Homo sapiens (Human), UniProt P11309); assay: ICKP protein kinase panel screening; type: biochemical; settings: duplicate assays, read-out: mean % residual activity
Experimental: as §1, §2, §3

RIPK2 = RIPK2 (Homo sapiens (Human), UniProt O43353); assay: ICKP protein kinase panel screening; type: biochemical; settings: duplicate assays, read-out: mean % residual activity
Experimental: as §1, §2, §3

IRAK4 = IRAK4 (Homo sapiens (Human), UniProt Q9NWZ3); assay: ICKP protein kinase panel screening; type: biochemical; settings: duplicate assays, read-out: mean % residual activity
Experimental: as §1, §2, §3

MLK3 = MLK3 (Homo sapiens (Human), UniProt Q16584); assay: ICKP protein kinase panel screening; type: biochemical; settings: duplicate assays, read-out: mean % residual activity
Sequence of MLK3 (Q16584 whole entry): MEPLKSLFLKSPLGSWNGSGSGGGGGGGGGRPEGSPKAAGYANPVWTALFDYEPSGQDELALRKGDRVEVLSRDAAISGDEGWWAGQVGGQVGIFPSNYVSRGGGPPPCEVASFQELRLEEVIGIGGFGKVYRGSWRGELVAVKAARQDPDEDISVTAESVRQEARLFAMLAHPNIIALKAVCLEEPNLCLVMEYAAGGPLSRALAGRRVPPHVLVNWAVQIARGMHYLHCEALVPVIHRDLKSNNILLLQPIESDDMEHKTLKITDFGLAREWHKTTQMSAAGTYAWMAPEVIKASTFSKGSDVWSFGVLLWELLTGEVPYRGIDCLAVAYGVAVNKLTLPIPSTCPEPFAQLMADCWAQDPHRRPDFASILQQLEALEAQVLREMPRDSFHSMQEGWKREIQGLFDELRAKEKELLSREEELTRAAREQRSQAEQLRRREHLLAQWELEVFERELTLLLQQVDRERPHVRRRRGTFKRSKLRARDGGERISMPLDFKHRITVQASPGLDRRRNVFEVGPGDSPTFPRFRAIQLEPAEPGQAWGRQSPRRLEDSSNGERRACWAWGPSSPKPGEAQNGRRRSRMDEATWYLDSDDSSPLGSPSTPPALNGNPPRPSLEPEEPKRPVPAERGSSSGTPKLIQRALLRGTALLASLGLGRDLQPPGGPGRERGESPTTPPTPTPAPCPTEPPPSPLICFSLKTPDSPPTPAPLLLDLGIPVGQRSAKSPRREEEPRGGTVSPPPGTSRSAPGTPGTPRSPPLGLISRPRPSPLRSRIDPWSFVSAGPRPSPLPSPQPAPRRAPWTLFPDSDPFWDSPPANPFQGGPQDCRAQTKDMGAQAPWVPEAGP
Experimental: as §1, §2, §3

Lck = Lck (Homo sapiens (Human), UniProt P06239); assay: ICKP protein kinase panel screening; type: biochemical; settings: duplicate assays, read-out: mean % residual activity
Experimental: as §1, §2, §3

CK1δ = CK1δ (Homo sapiens (Human), UniProt P48730); assay: ICKP protein kinase panel screening; type: biochemical; settings: duplicate assays, read-out: mean % residual activity
Sequence of CK1δ (P48730 whole entry): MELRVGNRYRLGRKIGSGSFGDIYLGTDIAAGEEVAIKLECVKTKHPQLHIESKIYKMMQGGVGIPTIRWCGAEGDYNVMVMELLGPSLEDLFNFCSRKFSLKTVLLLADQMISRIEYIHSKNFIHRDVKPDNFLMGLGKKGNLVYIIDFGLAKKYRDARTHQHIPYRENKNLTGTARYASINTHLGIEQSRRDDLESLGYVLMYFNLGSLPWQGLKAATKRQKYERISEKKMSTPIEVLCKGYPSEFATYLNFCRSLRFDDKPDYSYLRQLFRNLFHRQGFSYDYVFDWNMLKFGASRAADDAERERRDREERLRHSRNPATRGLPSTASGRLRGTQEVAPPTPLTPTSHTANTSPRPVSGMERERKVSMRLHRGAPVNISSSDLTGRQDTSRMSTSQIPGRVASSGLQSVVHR
Experimental: as §1, §2, §3

MARK3 = MARK3 (Homo sapiens (Human), UniProt P27448); assay: ICKP protein kinase panel screening; type: biochemical; settings: duplicate assays, read-out: mean % residual activity
Experimental: as §1, §2, §3

PKA = PKA (Homo sapiens (Human), UniProt P17612); assay: ICKP protein kinase panel screening; type: biochemical; settings: duplicate assays, read-out: mean % residual activity
Experimental: as §1, §2, §3

BTK = BTK (Homo sapiens (Human), UniProt Q06187); assay: ICKP protein kinase panel screening; type: biochemical; settings: duplicate assays, read-out: mean % residual activity
Experimental: as §1, §2, §3

Aurora B = Aurora B (Homo sapiens (Human), UniProt Q96GD4); assay: ICKP protein kinase panel screening; type: biochemical; settings: duplicate assays, read-out: mean % residual activity
Sequence of Aurora B (Q96GD4 whole entry): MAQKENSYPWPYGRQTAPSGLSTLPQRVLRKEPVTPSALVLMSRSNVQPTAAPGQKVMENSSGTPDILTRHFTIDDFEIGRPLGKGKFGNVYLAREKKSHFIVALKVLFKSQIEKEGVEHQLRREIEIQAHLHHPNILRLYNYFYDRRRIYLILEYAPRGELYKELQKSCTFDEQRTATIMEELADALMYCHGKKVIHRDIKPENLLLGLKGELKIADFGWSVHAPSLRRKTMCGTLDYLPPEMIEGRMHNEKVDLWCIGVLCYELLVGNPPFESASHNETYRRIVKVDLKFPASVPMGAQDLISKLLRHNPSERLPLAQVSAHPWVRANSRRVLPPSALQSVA
Experimental: as §1, §2, §3

HIPK2 = HIPK2 (Homo sapiens (Human), UniProt Q9H2X6); assay: ICKP protein kinase panel screening; type: biochemical; settings: duplicate assays, read-out: mean % residual activity
Experimental: as §1, §2, §3

RSK1 = RSK1 (Homo sapiens (Human), UniProt Q15418); assay: ICKP protein kinase panel screening; type: biochemical; settings: duplicate assays, read-out: mean % residual activity
Experimental: as §1, §2, §3

MKK1 = MKK1 (Homo sapiens (Human), UniProt Q02750); assay: ICKP protein kinase panel screening; type: biochemical; settings: duplicate assays, read-out: mean % residual activity
Sequence of MKK1 (Q02750 whole entry): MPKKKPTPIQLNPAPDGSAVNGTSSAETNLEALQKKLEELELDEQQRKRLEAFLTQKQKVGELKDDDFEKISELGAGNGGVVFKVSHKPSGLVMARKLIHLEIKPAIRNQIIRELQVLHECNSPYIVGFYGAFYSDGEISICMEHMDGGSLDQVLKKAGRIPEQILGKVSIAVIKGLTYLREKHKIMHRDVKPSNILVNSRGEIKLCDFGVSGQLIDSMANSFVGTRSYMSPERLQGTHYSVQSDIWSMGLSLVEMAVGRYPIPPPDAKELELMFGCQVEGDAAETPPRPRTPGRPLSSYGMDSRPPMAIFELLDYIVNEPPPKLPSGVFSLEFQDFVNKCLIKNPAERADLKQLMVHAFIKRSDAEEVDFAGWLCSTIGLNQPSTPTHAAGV
Experimental: as §1, §2, §3

For `O=c1[nH]cc(Nc2ccccc2)cc1-c1ccccc1Br` [Compound 69, 3-(2-Bromophenyl)-5-(phenylamino)pyridin-2(1H)-one], the “mean percentage of residual activity, other kinases of the panel (small disks)” value ([1]; all kinases except p38α MAPK) was ≥ 65%, the “selectivity for p38α MAPK over the other protein kinases” value ([1]; panel of 50 kinases) was “highly selective” and the remaining activity at 10 µM (SGK1) was 89%. It also gave a remaining activity at 10 µM (HER4) of 98%, a remaining activity at 10 µM (IGF-1R) of 96% and a remaining activity at 10 µM (TAK1) of 68%. It also gave a remaining activity at 10 µM (TTK) of 81%, a remaining activity at 10 µM (GSK3b) of 105% and a remaining activity at 10 µM (CAMKKb) of 95%. It also gave a remaining activity at 10 µM (LKB1) of 83%, a remaining activity at 10 µM (Src) of 93% and a remaining activity at 10 µM (CHK2) of 101%. For the same compound, the remaining activity at 10 µM (NEK6) was 102%, the remaining activity at 10 µM (PKCa) was 116% and the remaining activity at 10 µM (VEG-FR) was 94%. The remaining activity at 10 µM (PRK2) was 90%, the remaining activity at 10 µM (CAMK1) was 96% and the remaining activity at 10 µM (SYK) was 79%. For the same compound, the remaining activity at 10 µM (MSK1) was 100%, the remaining activity at 10 µM (PDK1) was 103% and the remaining activity at 10 µM (MST2) was 91%. The remaining activity at 10 µM (SmMLCK) was 100%, the remaining activity at 10 µM (PIM1) was 95% and the remaining activity at 10 µM (RIPK2) was 90%. The remaining activity at 10 µM (IRAK4) was 98%, the remaining activity at 10 µM (MLK3) was 109% and the remaining activity at 10 µM (Lck) was 108%. The remaining activity at 10 µM (CK1δ) was 98%, the remaining activity at 10 µM (MARK3) was 102% and the remaining activity at 10 µM (PKA) was 94%. It also gave a remaining activity at 10 µM (BTK) of 94%, a remaining activity at 10 µM (Aurora B) of 77% and a remaining activity at 10 µM (HIPK2) of 96%. It also gave a remaining activity at 10 µM (RSK1) of 94% and a remaining activity at 10 µM (MKK1) of 112%.
